Reference: the supplement of paper PMC10307832

What was measured:
Assay in all cases: relative viability (nuclei count vs DMSO), 5 days (fraction); higher = more cells survive
Bleomycin + Pemetrexed = compound: CC1=C(N=C(N=C1N)[C@H](CC(=O)N)NC[C@@H](C(=O)N)N)C(=O)N[C@@H]([C@H](C2=CN=CN2)OC3C(C(C(C(O3)CO)O)O)OC4C(C(C(C(O4)CO)O)OC(=O)N)O)C(=O)N[C@H](C)[C@H]([C@H](C)C(=O)N[C@@H]([C@@H](C)O)C(=O)NCCC5=NC(=CS5)C6=NC(=CS6)C(=O)NCCC[S+](C)C)O [Bleomycin] + Nc1nc2[nH]cc(CCc3ccc(C(=O)N[C@@H](CCC(=O)O)C(=O)O)cc3)c2c(=O)[nH]1 [Pemetrexed] (partner 0.2 µM); settings: main component drawn
Summary of the method: (§1)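 Dosing by pin tool came one day after lung cancer cell lines were seeded in 1536-well plates, using either one drug or a fixed anchor-drug dose plus five library-drug doses (not always all listed) in √10 steps. After 5 days, nuclei were counted on 4× images. Relative viability is treated-well nuclei count divided by vehicle-well nuclei count, and values are medians of duplicate plates.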

Bleomycin + Alpelisib = compound: CC1=C(N=C(N=C1N)[C@H](CC(=O)N)NC[C@@H](C(=O)N)N)C(=O)N[C@@H]([C@H](C2=CN=CN2)OC3C(C(C(C(O3)CO)O)O)OC4C(C(C(C(O4)CO)O)OC(=O)N)O)C(=O)N[C@H](C)[C@H]([C@H](C)C(=O)N[C@@H]([C@@H](C)O)C(=O)NCCC5=NC(=CS5)C6=NC(=CS6)C(=O)NCCC[S+](C)C)O [Bleomycin] + Cc1nc(NC(=O)N2CCC[C@H]2C(N)=O)sc1-c1ccnc(C(C)(C)C(F)(F)F)c1 [Alpelisib] (partner 2 µM); settings: main component drawn
Summary of the method: as §1

Etoposide + Lapatinib = compound: COc1cc([C@@H]2c3cc4c(cc3[C@@H](O[C@@H]3O[C@@H]5CO[C@@H](C)O[C@H]5[C@H](O)[C@H]3O)[C@H]3COC(=O)[C@H]23)OCO4)cc(OC)c1O [Etoposide] + CS(=O)(=O)CCNCc1ccc(-c2ccc3ncnc(Nc4ccc(OCc5cccc(F)c5)c(Cl)c4)c3c2)o1 [Lapatinib] (partner 2 µM)
Summary of the method: as §1

Etoposide + Decitabine = compound: COc1cc([C@@H]2c3cc4c(cc3[C@@H](O[C@@H]3O[C@@H]5CO[C@@H](C)O[C@H]5[C@H](O)[C@H]3O)[C@H]3COC(=O)[C@H]23)OCO4)cc(OC)c1O [Etoposide] + Nc1ncn([C@H]2C[C@H](O)[C@@H](CO)O2)c(=O)n1 [Decitabine] (partner 2 µM)
Summary of the method: as §1

## UMC-11
Bleomycin + Pemetrexed; first compound 0.01 µM
  relative viability: 0.74
Bleomycin + Pemetrexed; first compound 0.03162 µM
  relative viability: 0.756
Bleomycin + Pemetrexed; first compound 0.1 µM
  relative viability: 0.74
Bleomycin + Pemetrexed; first compound 0.3162 µM
  relative viability: 0.598
Bleomycin + Pemetrexed; first compound 1 µM
  relative viability: 0.414
Bleomycin + Alpelisib; first compound 0.01 µM
  relative viability: 0.873
Bleomycin + Alpelisib; first compound 0.03162 µM
  relative viability: 0.935
Bleomycin + Alpelisib; first compound 0.1 µM
  relative viability: 0.826
Bleomycin + Alpelisib; first compound 0.3162 µM
  relative viability: 0.598
Bleomycin + Alpelisib; first compound 1 µM
  relative viability: 0.44
Etoposide + Lapatinib; first compound 0.01 µM
  relative viability: 0.973
Etoposide + Lapatinib; first compound 0.03162 µM
  relative viability: 1.05
Etoposide + Lapatinib; first compound 0.1 µM
  relative viability: 0.407
Etoposide + Lapatinib; first compound 0.3162 µM
  relative viability: 0.46
Etoposide + Lapatinib; first compound 1 µM
  relative viability: 0.239
Etoposide + Decitabine; first compound 0.01 µM
  relative viability: 0.462
Etoposide + Decitabine; first compound 0.03162 µM
  relative viability: 0.621
Etoposide + Decitabine; first compound 0.1 µM
  relative viability: 0.355
Etoposide + Decitabine; first compound 0.3162 µM
  relative viability: 0.356
Etoposide + Decitabine; first compound 1 µM
  relative viability: 0.319
